The EC50 is the concentration at which the effect is half-maximal.

A value given as a limit tells only on which side of the number the result lay.

We go through 20 compounds from US20220089578A1, “COMPOUNDS AS GLP-1R AGONISTS” (Terns Pharmaceuticals, Inc., priority 2020, published 2022).

T1 sequence (P43220 24-463): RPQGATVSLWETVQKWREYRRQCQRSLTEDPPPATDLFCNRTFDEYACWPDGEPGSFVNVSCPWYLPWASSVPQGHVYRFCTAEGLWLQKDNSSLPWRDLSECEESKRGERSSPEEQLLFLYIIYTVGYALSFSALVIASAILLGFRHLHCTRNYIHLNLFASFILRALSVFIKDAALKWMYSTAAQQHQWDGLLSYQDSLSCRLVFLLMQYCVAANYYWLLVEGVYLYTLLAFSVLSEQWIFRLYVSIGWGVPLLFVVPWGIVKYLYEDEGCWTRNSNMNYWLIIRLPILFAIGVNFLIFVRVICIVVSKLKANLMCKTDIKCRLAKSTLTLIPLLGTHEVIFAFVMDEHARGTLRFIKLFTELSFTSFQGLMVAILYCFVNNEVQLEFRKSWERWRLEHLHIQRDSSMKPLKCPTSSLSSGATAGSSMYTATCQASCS

The target in one assay is T1, human GLP-1R (Homo sapiens, UniProt P43220). Put plainly: GLP-1R Cell Assay 2: CHO-K1_hGLP-1Rlow_clone10 cells, LANCE Ultra cAMP TR-FRET assay. The assay is classed as cell-based. Also on record: expressed in transfected cells. The following applies: Table 3, percent activation relative to control GLP-1 peptide agonist. How it is done:
Stable cell lines expressing high and low GLP-1R surface expression were generated in CHO-K1 cells transfected (Fugene 6) with a puromycin selectable DNA plasmid encoding human GLP-1R receptor (accession number: NM_002062.5) under control of an EF1A promoter. Transfected cells were seeded into 24-well plates (9,000 cells/well) containing complete medium and incubated in a humidified incubator at 37° C. with 5% carbon dioxide. After overnight incubation, medium was replaced with complete medium supplemented with puromycin (6 μg/mL) and refreshed every 2-3 days to select for stably transfected cells. Individual pools of selected cells were expanded prior to analysis for responsiveness to GLP-1 control peptide using a TR-FRET assay to detect cAMP (LANCE Ultra cAMP Assay, Perkin Elmer). Briefly, cells were collected in Versene solution, plated in 384-well plates (1,000 cells/well) and combined with serially diluted GLP-1R control peptide (10 nL) using an acoustic dispenser (ECHO). Plates were incubated for 30 minutes at 25° C. prior to the addition of EU-cAMP tracer (5 μL) and Ulight-anti-cAMP (5 μL) reagents to each well, followed by 15 minutes incubation at 25° C. TR-FRET signal was detected using an EnVision Multimode Plate Reader (excitation=320 nm; emission=615 and 655 nm). Dose-response curves were used to generate EC50 values as a measure of responsiveness to the GLP-1R control peptide. Selected cell lines were monitored for responsiveness over multiple passages to ensure stability. […] Briefly, GLP-1R expression was analyzed by flow cytometry using a fluorescein-labeled Exendin-4 peptide fluorescent probe (FLEX). Cells were harvested in Versene solution and washed 3-times with PBS+0.5% BSA before incubation with FLEX reagent (10 μM) for 2 hours at room temperature. After incubation, cells were washed 3-times in PBS+0.5% BSA before final resuspension in PBS prior to analysis by flow cytometry to measure FLEX mean fluorescence intensity (MFI) as a measure of GLP-1R expression on the cell surface.
For compound testing in the CHO-K1_hGLP-1Rlow_clonel0 cell lines, cells were seeded in 384-well plates (1,000 cells/well). Test compounds were serially diluted in DMSO (10-point, 3-fold dilution), added to wells using an ECHO dispenser (10 nL/well) and plates were centrifuged for 1 min and agitated for 2 min at room temperature prior to 30-minute incubation at 25° C. After incubation, Eu-cAMP (5 p,L) and Ulight-anti-cAMP (5 μL) reagents were added to each well, followed by centrifugation for 1 minute, agitation for 2 minutes at room temperature, and final incubation of the plates at 25° C. for 15 minutes. Plates were read using an EnVision microplate reader (excitation=320 nm; emission=615 and 655 nm). Dose-response curves were generated from duplicate wells based on percent activation calculated relative to a control GLP-1 peptide agonist that was run in parallel. EC50 values were determined by fitting percent activation as a function of compound concentration using the Hill equation (XLfit).
(In general: TR-FRET usually uses a lanthanide donor and a delayed reading to cut background.)
As to `N#Cc1cccc2c(COc3cccc(C4CCN(Cc5nc6ccc(C(=O)O)cc6n5C[C@@H]5CCO5)CC4)n3)csc12` [Compound 173, (S)-2-((4-(6-((7-cyanobenzo[b]thiophen-3-yl)methoxy)pyridin-2-yl)piperidin-1-yl)methyl)-1-(oxetan-2-ylmethyl)-1H-benzo[d]imidazole-6-carboxylic acid], the midpoint of the response, the EC50, lay at 13.2 nM.

`N#Cc1cc(F)c2c(c1)CCN(c1cccc(C3CCN(Cc4nc5ccc(C(=O)O)cc5n4Cc4ncco4)CC3)n1)C2` [Compound 172, 2-((4-(6-(6-cyano-8-fluoro-3,4-dihydroisoquinolin-2(1H)-yl)pyridin-2-yl)piperidin-1-yl)methyl)-1-(oxazol-2-ylmethyl)-1H-benzo[d]imidazole-6-carboxylic acid] displayed an EC50 of 119 nM.

`CCn1ccnc1Cn1c(CN2CCC(c3cccc(N4CCc5cc(C#N)cc(F)c5C4)n3)CC2)nc2ccc(C(=O)O)cc21` [Compound 171, 2-((4-(6-(6-cyano-8-fluoro-3,4-dihydroisoquinolin-2(1H)-yl)pyridin-2-yl)piperidin-1-yl)methyl)-1-((1-ethyl-1H-imidazol-2-yl)methyl)-1H-benzo[d]imidazole-6-carboxylic acid] came in with a half-maximal effective concentration (EC50) of 1410 nM.

Consider `O=C(O)c1ccc2nc(CN3CCC(c4cccc(OCc5csc6c(C(F)(F)F)cccc56)n4)CC3)n(C[C@@H]3CCO3)c2c1` [Compound 174, (S)-1-(oxetan-2-ylmethyl)-2-((4-(6-((7-(trifluoromethyl)benzo[b]thiophen-3-yl)methoxy)pyridin-2-yl)piperidin-1-yl)methyl)-1H-benzo[d]imidazole-6-carboxylic acid], for which the midpoint of the response, the EC50, lay at 63.4 nM.

For the compound `O=C(O)c1ccc2nc(CN3CCC(c4cccc(OCc5nc(C(F)(F)F)cs5)n4)CC3)n(C[C@@H]3CCO3)c2c1` [Compound 179, (S)-1-(oxetan-2-ylmethyl)-2-((4-(6-((4-(trifluoromethyl)thiazol-2-yl)methoxy)pyridin-2-yl)piperidin-1-yl)methyl)-1H-benzo[d]imidazole-6-carboxylic acid], the EC50 was determined as 36.6 nM.

The compound `O=C(O)c1ccc2nc(CN3CCC(c4cccc(Oc5ccccc5)n4)CC3)n(C[C@@H]3CCO3)c2c1` [Compound 183, (S)-1-(oxetan-2-ylmethyl)-2-((4-(6-phenoxypyridin-2-yl)piperidin-1-yl)methyl)-1H-benzo[d]imidazole-6-carboxylic acid] registered a concentration giving a half-maximal response (EC50) of over 10000 nM.

Compound `CC1=NCC(Cn2c(CN3CCC(c4cccc(OCc5ccc(C#N)cc5F)n4)CC3)nc3ccc(C(=O)O)cc32)O1` (single isomer, unassigned) [Compound 176, 2-((4-(6-((4-cyano-2-fluorobenzyl)oxy)pyridin-2-yl)piperidin-1-yl)methyl)-1-((2-methyl-4,5-dihydrooxazol-5-yl)methyl)-1H-benzo[d]imidazole-6-carboxylic acid] had an EC50 of 1590 nM.

In turn, `N#Cc1cccc2c(COc3cccc(C4CCN(Cc5nc6ccc(C(=O)O)cc6n5C[C@@H]5CCO5)CC4)n3)csc12` [Compound 187, (S)-2-((4-(6-((7-cyanobenzo[b]thiophen-3-yl)methoxy)pyridin-2-yl)piperidin-1-yl)methyl)-1-(oxetan-2-ylmethyl)-1H-benzo[d]imidazole-6-carboxylic acid] registered an EC50 of 13.2 nM.

The target of the next assay is T1, human GLP-1R. Description: GLP-1R Cell Assay 1: cAMP Hunter CHO-K1 GLP1R Gs cell line, HitHunter cAMP assay. It counts as cell-based. The following applies: Table 2; cAMP Hunter CHO-K1 GLP1R Gs cells; percent activity normalized to Exendin-4. The method in brief: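 Luminescent enzyme-fragment-complementation immunoassay quantified cellular cAMP after 30-60 min compound exposure at 37 °C in HBSS/10 mM HEPES. Data from duplicate runs were normalised to Exendin-4 and fitted nonlinearly for EC50.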
Take `O=C(O)c1ccc2nc(CN3CCN(c4cccc(OCC5CC6(COC6)C5)n4)CC3)n(C[C@@H]3CCO3)c2c1` [Compound 43, (S)-2-((4-(6-((2-oxaspiro[3.3]heptan-6-yl)methoxy)pyridin-2-yl)piperazin-1-yl)methyl)-1-(oxetan-2-ylmethyl)-1H-benzo[d]imidazole-6-carboxylic acid]: the EC50 was over 500 nM.

Consider `N#Cc1ccc2sc(COc3cccc(N4CCN(Cc5nc6ccc(C(=O)O)cc6n5C[C@@H]5CCO5)CC4)n3)nc2c1` [Compound 129, (S)-2-((4-(6-((5-cyanobenzo[d]thiazol-2-yl)methoxy)pyridin-2-yl)piperazin-1-yl)methyl)-1-(oxetan-2-ylmethyl)-1H-benzo[d]imidazole-6-carboxylic acid], for which the EC50 amounted to 2.6 nM.

In the case of `N#Cc1ccc2c(c1)CN(c1ccn(C3CCN(Cc4nc5ccc(C(=O)O)cc5n4C[C@@H]4CCO4)CC3)n1)CC2` [Compound 25, (S)-2-((4-(3-(7-cyano-3,4-dihydroisoquinolin-2(1H)-yl)-1H-pyrazol-1-yl)piperidin-1-yl)methyl)-1-(oxetan-2-ylmethyl)-1H-benzo[d]imidazole-6-carboxylic acid], the EC50 is over 500 nM.

Compound `N#Cc1ccc(COc2nn(C3CCN(Cc4nc5ccc(C(=O)O)cc5n4C[C@@H]4CCO4)CC3)cc2Cl)c(F)c1` [Compound 102, (S)-2-((4-(4-chloro-3-((4-cyano-2-fluorobenzyl)oxy)-1H-pyrazol-1-yl)piperidin-1-yl)methyl)-1-(oxetan-2-ylmethyl)-1H-benzo[d]imidazole-6-carboxylic acid] displayed an EC50 of 3.94 nM.

The compound `N#Cc1cccc2c1CCCN(c1cccc(N3CCN(Cc4nc5ccc(C(=O)O)cc5n4C[C@@H]4CCO4)CC3)n1)C2` [Compound 78, (S)-2-((4-(6-(6-cyano-1,3,4,5-tetrahydro-2H-benzo[c]azepin-2-yl)pyridin-2-yl)piperazin-1-yl)methyl)-1-(oxetan-2-ylmethyl)-1H-benzo[d]imidazole-6-carboxylic acid] gave a half-maximal effective concentration (EC50) of 56.2 nM.

For the compound `O=C(O)c1ccc2nc(CN3CCC(c4cccc(OCc5ncc(Cl)s5)n4)CC3)n(C[C@@H]3CCO3)c2c1` [Compound 134, (S)-2-((4-(6-((5-chlorothiazol-2-yl)methoxy)pyridin-2-yl)piperidin-1-yl)methyl)-1-(oxetan-2-ylmethyl)-1H-benzo[d]imidazole-6-carboxylic acid], a half-maximal response (EC50) required 0.222 nM.

Compound `N#Cc1ccc(COc2cccc(N3CCC(Cc4nc5ccc(C(=O)O)cc5n4C[C@@H]4CCO4)CC3)n2)c(F)c1` [Compound 15, (S)-2-((1-(6-((4-cyano-2-fluorobenzyl)oxy)pyridin-2-yl)piperidin-4-yl)methyl)-1-(oxetan-2-ylmethyl)-1H-benzo[d]imidazole-6-carboxylic acid] gave an EC50 of 0.311 nM.

For `O=C(O)c1ccc2nc(CN3CCN(c4cccc(OCC5CCC5)n4)CC3)n(C[C@@H]3CCO3)c2c1` [Compound 88, (S)-2-((4-(6-(cyclobutylmethoxy)pyridin-2-yl)piperazin-1-yl)methyl)-1-(oxetan-2-ylmethyl)-1H-benzo[d]imidazole-6-carboxylic acid], it took 239 nM to reach a half-maximal effect (EC50).

`O=C(O)c1ccc2nc(CN3CCN(c4cccc(OCc5ccc6ccccc6n5)n4)CC3)n(C[C@@H]3CCO3)c2c1` [Compound 82, (S)-1-(oxetan-2-ylmethyl)-2-((4-(6-(quinolin-2-ylmethoxy)pyridin-2-yl)piperazin-1-yl)methyl)-1H-benzo[d]imidazole-6-carboxylic acid] showed an EC50 of 2.78 nM.

Take `O=C(O)c1ccc2nc(CN3CCC(c4cccc(OCc5nc6ccccc6s5)n4)CC3)n(C[C@@H]3CCO3)c2c1` [Compound 14, (S)-2-((4-(6-(benzo[d]thiazol-2-ylmethoxy)pyridin-2-yl)piperidin-1-yl)methyl)-1-(oxetan-2-ylmethyl)-1H-benzo[d]imidazole-6-carboxylic acid]: the EC50 came out at 0.246 nM.

Regarding `O=C(O)c1ccc2nc(CN3CCC(n4ccc(COc5ccccc5)n4)CC3)n(C[C@@H]3CCO3)c2c1` [Compound 26-P1, (S)-1-(oxetan-2-ylmethyl)-2-((4-(3-(phenoxymethyl)-1H-pyrazol-1-yl)piperidin-1-yl)methyl)-1H-benzo[d]imidazole-6-carboxylic acid], the 50% effective concentration (EC50) was over 500 nM.

The same assay, now with this note: Table 3; cAMP Hunter CHO-K1 GLP1R Gs cells; percent activity normalized to Exendin-4.
As to `O=C(O)c1ccc2nc(CN3CCC(n4cc5cccc(Oc6ccccc6)c5n4)CC3)n(C[C@@H]3CCO3)c2c1` [Compound 159, (S)-1-(oxetan-2-ylmethyl)-2-((4-(7-phenoxy-2H-indazol-2-yl)piperidin-1-yl)methyl)-1H-benzo[d]imidazole-6-carboxylic acid], the 50% effective concentration (EC50) is over 500 nM.
